Read-outs that look alike come from different tables or passages of the source.

As a reminder, the LD50 is the dose expected to kill half of the subjects tested. Higher therefore signals lower toxicity.

In one data set the test system is rats. The data set can be described thus: pole climbing avoidance test (antianxiety activity; Maffii). The note with it: for responders at 10 mg/kg / responders at 30 mg/kg / responders at 60 mg/kg / responders at 15 mg/kg: Rattus norvegicus, ip; for responders at 10 mg/kg: 10 mg/Kg i.p.; for responders at 30 mg/kg: 30 mg/Kg i.p.; for responders at 60 mg/kg: 60 mg/Kg i.p.; for influence on the CR and the UR: i.p., about 15 to about 60 mg/Kg; for responders at 15 mg/kg: 15 mg/Kg i.p. In kind it is in vivo. The source says: The CNS-depressant activity in mammals was investigated by means of the general psychophysic screening method, as described by S. Irwin in Psychopharmacologia (Berl.), 13, 222-257, 1968. […] It is to be noted that the above parameters are directly connected with sedative, hypnotic and miorelaxing properties. The antianxiety activity of the compounds of the invention was investigated by means of the "pole climbing avoidance test", performed as described by G. Maffii in Journ. Pharm. Pharmacol., 11, 129, 1959, wherein a conditioned animal (generally a rat) is deconditioned i.e., is brought to its normal psychic behavior by administration of a suitable amount of the compound to be tested. According to G. Maffii, an inhibition of the secondary conditioned response (CR2) without a contemporary or coupled with a not significant inhibition of the primary conditioned response (CR) and the unconditioned response (UR) is a clear indication of an antianxiety effect since these last two parameters are connected with sedative and hypnotic properties.

Data set [1] in a line: Acute toxicity (LD50) in mice, i.p. The note with it: mouse, in vivo, ip. How it is done:
(§1) Moreover, they display a considerably low toxicity as, generally, their LD50 values are never lower than 600 mg/Kg when given i.p. and never lower than 1000 mg/Kg when given orally to mice.

Data set [2] relates to carrageenin induced edema in rats. The data set can be described thus: carrageenin induced edema test (Winter et al.). It is filed as in vivo. The note with it: for significant reduction of the edema over the control: oral, about 1/5 to about 1/10 of the LD50. The protocol: As stated above, the compounds of the invention show also a remarkable antiinflammatory action, which was ascertained by means of the "carrageenin induced edema test" in rats. Said test was performed according to the operative scheme proposed by C. A. Winter et al., Proc., Soc. Exptl.
In general terms: The carrageenan paw model is a standard test of acute inflammation.

Data set [3] in a line: Acute toxicity (LD50) in mice, oral. The note with it: mouse, in vivo, p.o. How it is done:
as §1

[4] abbreviates: read-out: CR2 (secondary conditioned response), Decond./Conditioned.
The mark [5] stands for this setting: read-out: CR (primary conditioned response), Decond./Conditioned.
[6] abbreviates: read-out: UR (unconditioned response), Decond./Conditioned.

With `Cc1nn(C)c2nc(OCCO)c3ccccc3c12` [Example 20, 5-(2-Hydroxyethoxy)-1,3-dimethyl-3H-pyrazolo[3,4-c]isoquinoline], in the data set with rats (setting [4]), the responders at 10 mg/kg was determined as 60%, the responders at 30 mg/kg was 70% and the responders at 60 mg/kg was determined as 90%. Further, in the data set on rats (setting [5]), the responders at 10 mg/kg was determined as 10%, the responders at 30 mg/kg turned out to be 30% and the responders at 60 mg/kg worked out at 30%. Moreover, in the data set on rats (setting [6]), the responders at 10 mg/kg came out at 0%, the responders at 30 mg/kg turned out to be 0% and the responders at 60 mg/kg turned out to be 0%. For the same compound, in the data set with rats, the “influence on the CR and the UR” value is on record as “practically no influence”. In data set [1], this compound registered a 50% lethal dose (LD50) of more than 600 mg/kg.

Take `CCc1nc2c3ccccc3c(=O)n(C)c2s1` [Example 9, 2-Ethyl-4-methyl-thiazolo[5,4-c]isoquinoline-5(4H)-one]: the “% Decrease of the induced edema” value in data set [2] (50 mg/kg p.o.) stood at 25%; in data set [2] (100 mg/kg p.o.) it was 31%; in data set [2] (200 mg/kg p.o.), 40%. For the same compound, in data set [2], the “significant reduction of the edema over the control” value (“significant reduction of the edema” for short) is on record as not below 40%. In addition, the LD50 in data set [3] worked out at 1000 mg/kg.

In the case of `Cc1nn(C)c2c1c1ccccc1c(=O)n2CCN1CCN(c2ccccc2)CC1.Cl` [Example 38, 1,3-Dimethyl-4-[2-(4-phenyl-1-piperazinyl)ethyl]-3H-pyrazolo[3,4-c]isoquinoline-5(4H)-one hydrochloride], the responders at 30 mg/kg in the data set with rats (setting [4]) is 90%; in the data set on rats (setting [5]), 10%; in the data set with rats (setting [6]) it was 0%. Moreover, the responders at 60 mg/kg in the data set on rats (setting [4]) stood at 100%; with rats (setting [5]), 40%; in the data set with rats (setting [6]), 0%. Further, the “influence on the CR and the UR” value in the data set on rats is given as “practically no influence”. For the same compound, in data set [1], the median lethal dose (LD50) was more than 600 mg/kg.

For `CCCCOc1nc2sc(C)nc2c2ccccc12` [5(O-isomer), 5-butoxy-2-methyl-thiazolo[5,4-c]isoquinoline], the figures for the responders at 60 mg/kg with rats (setting [4]), in the data set on rats (setting [5]) and with rats (setting [6]) were 50%, 0% and 0%, respectively. Further, in data set [1], the median lethal dose (LD50) amounted to 600 mg/kg.

Turning to `CCc1nn(C)c2nc(OCC(C)=O)c3ccccc3c12` [Example 26, 5-Acetylmethoxy-1-ethyl-3-methyl-3H-pyrazolo[3,4-c]isoquinoline], the responders at 30 mg/kg was determined as 50% in the data set on rats (setting [4]), 0% with rats (setting [5]) and 0% in the data set with rats (setting [6]). Further, the responders at 60 mg/kg in the data set on rats (setting [4]) came to 100%; in the data set with rats (setting [5]) it was 0%; in the data set with rats (setting [6]), 0%. In addition, in the data set on rats, the “influence on the CR and the UR” value was “practically no influence”. Also, the median lethal dose (LD50) was more than 600 mg/kg in data set [1] and more than 1000 mg/kg in data set [3]. The “% Decrease of the induced edema” value is recorded as 30% in data set [2] (50 mg/kg p.o.), 37% in data set [2] (100 mg/kg p.o.) and 43% in data set [2] (200 mg/kg p.o.). Further, the “significant reduction of the edema” value in data set [2] is listed as not below 40%.

For `CCn1c(=O)c2ccccc2c2nc(C)sc21` [Example 2(N-isomer), 4-Ethyl-2-methyl-thiazolo[5,4-c]isoquinoline-5(4H)-one], the figures for the responders at 15 mg/kg with rats (setting [4]), with rats (setting [5]) and with rats (setting [6]) were 50%, 0% and 0%, respectively. Further, the responders at 30 mg/kg in the data set with rats (setting [4]) came out at 80%; in the data set on rats (setting [5]), 0%; in the data set on rats (setting [6]) it was 0%. Besides, the “influence on the CR and the UR” value with rats is listed as “practically no influence”. The compound also yielded an LD50 in data set [1] of 400 mg/kg.

For the compound `CCc1nn(C)c2nc(OCCO)c3ccccc3c12` [Example 25, 1-Ethyl-5-hydroxyethoxy-3-methyl-3H-pyrazolo[3,4-c]isoquinoline], the responders at 30 mg/kg in the data set with rats (setting [4]) is 50%; in the data set with rats (setting [5]), 0%; in the data set with rats (setting [6]) it was 0%. Further, the responders at 60 mg/kg in the data set on rats (setting [4]) is 70%; in the data set on rats (setting [5]), 0%; with rats (setting [6]), 0%. Besides, the “influence on the CR and the UR” value with rats is “practically no influence”. The compound also displayed a 50% lethal dose (LD50) in data set [1] of more than 600 mg/kg.

`CCCCn1c(=O)c2ccccc2c2nc(C)sc21` [5(N-isomer), 4-Butyl-2-methyl-thiazolo[5,4-c]isoquinoline-5(4H)-one]: the responders at 60 mg/kg in the data set with rats (setting [4]) came out at 50%; in the data set on rats (setting [5]), 0%; in the data set on rats (setting [6]), 0%. In addition, the figures for the median lethal dose (LD50) in data set [1] and in data set [3] were 600 mg/kg and more than 1000 mg/kg, respectively. Besides, the “% Decrease of the induced edema” value is on record as 28% in data set [2] (50 mg/kg p.o.), 37% in data set [2] (100 mg/kg p.o.) and 51% in data set [2] (200 mg/kg p.o.). In data set [2], the “significant reduction of the edema” value is not below 40%.

Take `Cc1nc2c3ccccc3c(=O)n(C)c2s1` [Example 1, 2,4-Dimethyl-thiazolo[5,4-c]isoquinoline-5(4H)-one]: the “% Decrease of the induced edema” value in data set [2] (20 mg/kg p.o.) was found to be 25%; in data set [2] (50 mg/kg p.o.), 38%; in data set [2] (100 mg/kg p.o.) it was 46%; in data set [2] (200 mg/kg p.o.), 61%. In data set [2], the “significant reduction of the edema” value is on record as not below 40%. The compound further returned an LD50 in data set [3] of more than 1000 mg/kg.

Consider `CCCCOc1nc2c(c(C)nn2C)c2ccccc12` [Example 24, 5-Butoxy-1,3-dimethyl-3H-pyrazolo[3,4-c]isoquinoline], for which the values for the responders at 30 mg/kg in the data set with rats (setting [4]), with rats (setting [5]) and in the data set with rats (setting [6]) were 60%, 0% and 0%, respectively. For the same compound, the responders at 60 mg/kg came to 100% in the data set on rats (setting [4]), 30% in the data set with rats (setting [5]) and 0% in the data set on rats (setting [6]). The “influence on the CR and the UR” value in the data set with rats was “practically no influence”. Moreover, the values for the LD50 in data set [1] and in data set [3] were more than 600 mg/kg and 1000 mg/kg, respectively. The “% Decrease of the induced edema” value is 26% in data set [2] (50 mg/kg p.o.), 38% in data set [2] (100 mg/kg p.o.) and 45% in data set [2] (200 mg/kg p.o.). In addition, the “significant reduction of the edema” value in data set [2] is on record as not below 40%.

Source of the values: patent US4232017A, “Treatment of psychic disorders and inflammation with fused isoquinolines” (Gruppo Lepetit S.p.A., priority 1978, dated 1980).
